# How the values were obtained:
# Assay type in all cases: cell-based
# [1] = target: T1, type-B natriuretic peptide receptor in immortalized human corneal epithelial (CEPI-17-CL4) cells (Homo sapiens, UniProt P20594); experiment: Antagonism of CNP fragment-induced cGMP production in immortalized human corneal epithelial (CEPI-17-CL4) cells; settings: mean ± SEM
# T1 construct: primary human corneal epithelial cells (P-CEPI) were isolated from human donor eyes; endogenous in cells; host or cells: primary human corneal epithelial cells (P-CEPI) and SV40-immortalized human corneal epithelial cells (CEPI-17-CL4)
# T1 sequence (P20594 23-1047): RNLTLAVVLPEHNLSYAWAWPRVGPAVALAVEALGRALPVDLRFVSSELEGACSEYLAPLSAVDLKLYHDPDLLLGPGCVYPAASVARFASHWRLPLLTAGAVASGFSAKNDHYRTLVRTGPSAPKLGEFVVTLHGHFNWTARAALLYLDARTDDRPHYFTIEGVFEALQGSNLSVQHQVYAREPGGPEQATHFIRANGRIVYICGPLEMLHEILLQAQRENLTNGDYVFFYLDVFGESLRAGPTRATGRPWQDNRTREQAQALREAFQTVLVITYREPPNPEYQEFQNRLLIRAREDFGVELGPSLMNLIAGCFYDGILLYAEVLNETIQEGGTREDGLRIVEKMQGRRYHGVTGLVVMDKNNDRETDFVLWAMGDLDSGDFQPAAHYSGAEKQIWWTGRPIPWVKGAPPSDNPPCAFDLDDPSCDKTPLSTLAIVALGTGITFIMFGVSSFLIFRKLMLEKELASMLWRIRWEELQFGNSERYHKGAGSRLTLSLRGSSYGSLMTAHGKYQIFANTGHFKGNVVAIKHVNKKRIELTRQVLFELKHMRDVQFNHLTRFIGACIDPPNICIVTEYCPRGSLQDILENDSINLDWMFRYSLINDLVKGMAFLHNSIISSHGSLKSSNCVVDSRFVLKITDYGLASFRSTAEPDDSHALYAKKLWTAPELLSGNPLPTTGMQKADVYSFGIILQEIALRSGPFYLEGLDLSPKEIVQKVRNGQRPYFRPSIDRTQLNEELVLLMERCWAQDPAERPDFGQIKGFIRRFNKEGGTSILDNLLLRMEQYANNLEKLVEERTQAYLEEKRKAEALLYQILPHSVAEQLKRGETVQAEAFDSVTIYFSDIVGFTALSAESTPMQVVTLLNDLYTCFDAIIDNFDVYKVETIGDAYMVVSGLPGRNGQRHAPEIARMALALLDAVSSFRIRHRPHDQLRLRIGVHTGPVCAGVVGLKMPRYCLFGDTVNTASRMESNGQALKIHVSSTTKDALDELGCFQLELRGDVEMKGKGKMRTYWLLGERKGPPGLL
# [2] = target: T2, Type-A natriuretic peptide receptor in human conjunctival epithelial cells (Chang cells) (Homo sapiens, UniProt P16066); experiment: Natriuretic peptide-stimulated cGMP production (guanylyl cyclase activity, EIA) in human conjunctival epithelial cells (Chang cells); settings: for Agonist character in words: cGMP production; for Intrinsic Activity (Emax; % Max. Response): cGMP production via type-A receptor
# T2 construct: the most relevant cells are Chang cells (Clone 1-5C-4 Wong-Kilbourne Derivative); These cells were obtained from ATCC; host or cells: Chang cells (Clone 1-5C-4 Wong-Kilbourne Derivative), human conjunctival epithelial cells
# T2 sequence (P16066 33-1061): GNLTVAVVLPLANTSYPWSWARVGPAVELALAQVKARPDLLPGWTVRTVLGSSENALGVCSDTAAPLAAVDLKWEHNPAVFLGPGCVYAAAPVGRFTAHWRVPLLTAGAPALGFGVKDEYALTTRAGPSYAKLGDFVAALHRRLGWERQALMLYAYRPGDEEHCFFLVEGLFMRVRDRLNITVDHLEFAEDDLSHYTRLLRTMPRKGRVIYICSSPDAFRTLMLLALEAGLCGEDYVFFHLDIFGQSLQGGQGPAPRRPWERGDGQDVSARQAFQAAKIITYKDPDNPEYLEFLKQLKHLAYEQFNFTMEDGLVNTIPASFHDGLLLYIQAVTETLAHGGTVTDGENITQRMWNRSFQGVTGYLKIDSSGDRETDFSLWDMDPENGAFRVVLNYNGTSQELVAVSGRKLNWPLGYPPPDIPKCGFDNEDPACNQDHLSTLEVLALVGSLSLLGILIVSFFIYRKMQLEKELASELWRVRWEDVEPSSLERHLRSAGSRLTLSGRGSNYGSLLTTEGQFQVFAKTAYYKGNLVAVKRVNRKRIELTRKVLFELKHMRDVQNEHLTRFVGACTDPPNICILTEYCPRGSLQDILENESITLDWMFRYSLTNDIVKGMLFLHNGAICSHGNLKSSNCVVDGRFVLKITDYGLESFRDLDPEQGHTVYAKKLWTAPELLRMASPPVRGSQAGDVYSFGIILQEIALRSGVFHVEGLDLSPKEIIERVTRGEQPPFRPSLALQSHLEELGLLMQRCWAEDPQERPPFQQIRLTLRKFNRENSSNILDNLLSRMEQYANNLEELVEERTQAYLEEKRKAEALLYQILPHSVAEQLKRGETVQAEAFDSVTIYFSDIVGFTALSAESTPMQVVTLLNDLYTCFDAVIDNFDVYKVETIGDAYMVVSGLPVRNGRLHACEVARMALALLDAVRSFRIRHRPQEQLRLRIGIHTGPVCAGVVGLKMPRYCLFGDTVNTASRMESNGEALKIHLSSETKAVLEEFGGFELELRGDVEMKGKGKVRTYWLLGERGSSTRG
# Description: These cells were obtained from ATCC (Manassas, Va.) and cultured in medium 199, containing 10% fetal bovine serum and […] Gentamicin. (obtained from Gibco/Invitrogen; Carlsbad, Calif.).
# Cells were seeded in 48-wells culture plates. On reaching confluence, the cells were rinsed twice with 0.5 ml Dulbeco's modified Eagle's medium (DMEM)/F-12. […] Natriuretic peptides (American Peptide Co. Inc., Sunnyvale, Calif.; Peninsula Labs. San Carlos, Calif.) were then added at the end of this period and the reaction was allowed to proceed for another 15 minutes at 23° C. After aspiration of the reaction medium, ice cold 0.1 M acetic acid ([…], pH 3.5) was added for the termination of cGMP synthesis and cell lysis. Finally, ice-cold 0.1 M sodium acetate ([…], pH 11.5-12.0) was added to neutralize the samples before analysis of cGMP by an enzyme immunoassay (EIA) kit. cGMP production in the cells was measured using the EIA kit purchased from Amersham Pharmacia Biotech (Piscataway, N.J.). This assay was conducted according to the package insert in an automated manner using a robotic workstation (Biomek 2000; Beckman Instrument, Fullerton, Calif.) (Sharif et al. Characterization of the ocular anti-allergic and anti-histaminic effects of Olopatadine (AL-4943A), a novel drug for treating ocular allergic diseases. J. Pharmacology & Experimental Therapeutics 278, 1251-1260, 1996; Crider et al. Pharmacological characterization of serotonin receptor (5HT7) stimulating cAMP production in human corneal epithelial cells. Invest. Ophthalmol. Vis. Sci. 44: 4837-4844, 2003). Data were analyzed using a non-linear, iterative curve-fitting computer program (IDBS, Surrey, UK) and Origin software package (Microcal Software, Inc., Northampton, Mass.) (Sharif et al. 1996; Crider et al. 2003).
# [3] = target: T3, Type-B natriuretic peptide receptor in human corneal epithelial cells (Homo sapiens, UniProt P20594); experiment: Natriuretic peptide-stimulated cGMP production (guanylyl cyclase activity, EIA) in human corneal epithelial cells; settings: cGMP production via type-B receptor
# T3 construct: primary human corneal epithelial cells (P-CEPI) were isolated from human donor eyes; endogenous in cells; host or cells: primary human corneal epithelial cells (P-CEPI) and SV40-immortalized human corneal epithelial cells (CEPI-17-CL4)
# T3 sequence (P20594 23-1047): T1 sequence (P20594 23-1047)
# Description: Thus, primary human corneal epithelial cells (P-CEPI) were isolated from human donor eyes ≦24 hr postmortem and were cultured in EpiLife medium (Cascade Biologics, Portland, Oreg.) containing 1% human corneal growth supplement, 100 u/ml penicillin G, 100 mg/ml streptomycin sulfate. Culture plates were coated with fibronectin to help the cells adhere to the bottom of the plates. […]
# In brief, compounds of interest were diluted in ethanol so that the final ethanol concentration was 1%, a concentration well tolerated by the cells. […] Finally, ice-cold 0.1 M sodium acetate (220 ml, pH 11.5-12.0) was added to neutralize the samples before analysis of cGMP by an enzyme immunoassay (EIA) kit. cGMP production in the cells was measured using the EIA kit purchased from Amersham Pharmacia Biotech (Piscataway, N.J.). […] Data were analyzed using a non-linear, iterative curve-fitting computer program (IDBS, Surrey, UK) and Origin software package (Microcal Software, Inc., Northampton, Mass.) (Sharif et al. 1996; Crider et al. 2003). […]
Compound,Ki [1] [µM],Agonist character in words [2],Intrinsic Activity (Emax; % Max. Response) [2] [%],Intrinsic Activity (Emax; % Max. Response) [3] [%]
O=C1Nc2ccccc2C1=O [isatin],18 ± 4,,,
C-type natriuretic peptide [CNP],,weak partial agonist,26,100
brain natriuretic peptide [BNP],,potent full agonists,94,50.2
